Assay results as given in patent US20020159981A1, “Methods of controlling proliferation and differentiation of stem and progenitor cells” (Gamida-Cell Ltd., priority 1999, published 2002).

Assays:
Hepatocytes = experiment: Ex-vivo expansion of hepatocytes; type: cell-based, BALB/c mice; settings: 15 μg/ml TEPA, five weeks (FIGS. 27a-d)
Protocol: Hepatocytes: Livers were dissected from anesthetized BALB/c mice with sterile tools and immersed into F12 culture medium (Biological Industries, Kibbutz Bet Ha'Emek, Israel). The livers were washed three times with 3% BSA/PBS buffer and minced into small pieces with seizures. Following three washes with 3% BSA/PBS the liver tissue pieces were incubated for 30 minutes with 0.05% collagenase at 37° C. with continues shaking under 5% CO2 atmosphere. The digested liver tissue pieces were than mashed by pressing through a fine mesh strainer. After three washes with 3% BSA/PBS the liver cells were seeded into F12 culture medium enriched with: 15 mM HEPES buffer, […], 10 mM sodium bicarbonate, 0.5 u/ml insulin, 7.5 ng/ml hydrocortisone and with or without 15 μg/ml of TEPA and incubated at 37° C. in a 5% CO2 atmosphere. After overnight incubation the medium was removed and the cells were supplemented with fresh enriched F12 medium as described above with or without 15 μg/ml of TEPA. Hepatocytes were incubated in 35 mm dishes for several weeks with enriched F12 culture medium with or without 15 μg/ml TEPA at 37° C. under 5% CO2 atmosphere. Cell culture medium was replaced every week with a fresh medium.

[1] = tested on: Cord blood-derived CD34 cells; experiment: Long-term liquid culture of CD34 cells: proliferation, CFUc, differentiation status; type: cell-based, human
Protocol: (§1) Culture procedures: For the expansion of progenitor cells, CD34^+ enriched fractions or unseparated mononuclear cells were seeded at about 1-3×10^4 cells/ml in either alpha minimal essential medium containing 10% preselected fetal calf serum (FCS) (both from GIBCO, Grand Island, N.Y.), or serum-free medium (Progenitor-34 medium, Life Technologies, Grand Island, N.Y.). The media were supplemented with a mixture of growth factors and transition metal chelators. The cultures were incubated at 37° C. in an atmosphere of 5% CO2 in air with extra humidity. Half of the medium was changed weekly with fresh medium containing all the supplements.
(§2) Cloning potential evaluations: The cloning potential of cells developed in the liquid culture was assayed, at different intervals, in semi-solid medium. The cells were washed and seeded in 35 mm dishes in methylcellulose containing alpha medium supplemented with recombinant growth factors (SCF, G-CSF, GM-CSF and EPO). Following 2 weeks incubation, the cultures were scored with an inverted microscope. Colonies were classified as blast, mixed, erythroid, myeloid, and megakaryocytic, according to their cellular composition.
Morphological assessment: In order to characterize the resulting culture populations, aliquots of cells were deposited on a glass slide (cytocentrifuge, Shandon, Runcorn, UK), fixed and stained in May-Grunwald Giemsa. Other aliquots were stained by benzidine for intracellular hemoglobin.
TEPA effects on proliferation and clonability of long-term CD34^+ cultures: Long-term cultures were maintained for 3-5 weeks by weekly demi-depopulation (one half of the culture volume was removed and replaced by fresh medium and cytokines).
CD34^+ cells derived from human neonatal cord blood were purified by immunomagnetic method and then cultured in liquid medium supplemented with cytokines either with or without transition metal chelators. At weekly intervals, the cultures were demi-depopulated by removing half of the culture content (supernatant and cells) and replacing it with fresh medium, cytokines and the chelators. At the indicated weeks the cellular content of the cultures were quantified for total cells (by a manual microscopic/hemocytometric method), for CD34^+ cells (by immuno-flow cytometry) and for clonogenic cells (by cloning the cells in cytokine-supplemented semi-solid medium). The cultures were initiated with 1×10^4 cells, 50-80% of which were CD34^+ and 25-50% of which were CFUc. The results presented in FIGS. 11 to 24 were calculated per 1×10^4 initiating cells (the numbers were multiplied by the dilution factors).

[2] = tested on: Cord blood-derived CD34 cells; experiment: Short-term liquid culture of CD34 cells: cell number, CD34 cells, colony forming cells; type: cell-based, human
Protocol: The interphase layer of mononuclear cells were collected, washed three times with Ca/Mg free phosphate buffered saline containing 1% bovine serum albumin (BSA). The cells were incubated for 30 min. at 4° C. with murine monoclonal anti CD34 antibody (0.5 μg/10^6 mononuclear cells) and thereafter isolated using the miniMACS apparatus (Miltenyi-Biotec, Bergisch, Gladbach, Germany) according to the manufacturer's protocol.
as §1, §2
Immunofluorescence staining: At different intervals, cells from the liquid cultures were assayed for CD34 antigen. Aliquots were harvested, washed and incubated on ice with FITC-labeled anti CD45 monoclonal antibody and either PE-labeled anti CD34 (HPCA-2) monoclonal antibody or PE-labeled control mouse Ig. After incubation, red cells were lysed with lysing solution, while the remaining cells were washed and analyzed by flow cytometer.
Flow cytometry: Cells were analyzed and sorted using FACStarPlus flow cytometer (Becton-Dickinson, Immunofluorometry systems, Mountain View, Calif.). Cells were passed at a rate of 1,000 cells/second through a […] nozzle, using saline as the sheath fluid. A 488 nm argon laser beam at 250 mW served as the light source for excitation. […] The PMTs was set at the appropriate voltage. Logarithmic amplification was applied for measurements of fluorescence and linear amplification—for forward light scatter. At least 10^4 cells were analyzed.
Cord blood-derived CD34 cells were plated in liquid culture in the presence of: FL—50 ng/ml, SCF—50 ng/ml, IL-6—50 ng/ml, with or without IL-3—20 ng/ml, with or without TEPA—10 μM. On day 7, the percentage of CD34 cells and the total cell number were determined. Aliquots equivalent to 1×10^3 initiating cells were assayed on days 0 and 7 for colony forming cells (CFU) by cloning in semi-solid medium. CFU expansion represents the ratio of CFU present on day 7 to CFU present on day 0.

[3] = high doses of early cytokines or early- and late-acting cytokines (Table 1, FIG. 3)

NCCNCCNCCNCCN [TEPA, tetraethylenepentamine]
state of hepatocytes cultures (Hepatocytes): contained many dividing and undifferentiated cells | activity on differentiation of CD34^+ cells [1]: inhibit differentiation | clonability in long-term cultures ([1]; 3-5 weeks, early or early and late cytokines, compared to cytokines only (FIGS. 3, 4)): higher clonability | differentiation stimulatory effect of G-CSF and GM-CSF ([1]; G-CSF and GM-CSF 10 ng/ml each, CFUc frequency (FIG. 15)): blocked | CFUc in culture upon termination ([1]; after 6 weeks, started with 2.5×10^3 CFUc, TEPA 10 μM): 300×10^3 CFUc | time cultures could be maintained ([1]; early-acting cytokines, no stromal cells, TEPA 10 μM (FIG. 11)): > 6 weeks | effectiveness among polyamine chelating agents ([1]; long term cultures (FIGS. 21a-b)): more effective than the short-chain polyamines | cell proliferation and generation of CFUc in long-term cultures ([1]; long-term cultures (FIGS. 21, 22)): support continuous cell proliferation and long-term generation of CFUc and to delay cell differentiation | concentrations with optimal activity ([1]; polyamine chelating agents, weeks 3, 4, 6, 7 (FIGS. 21a-b)): 40 µM | concentrations with optimal activity ([1]; transition metal chelating agents, weeks 4, 5, 7 (FIGS. 22a-b)): 10 µM | Cells/ml (×10^4) ([2]; TEPA 10 μM, without IL-3, FL, SCF, IL-6 50 ng/ml each, day 7): 2 ×10^4 cells/ml | total cell number ([2]; cultures supplemented with both early and late cytokines (FIG. 3)): marginal inhibition | clonability [2, 3]: significantly increased | percentage of CD34^+ cells [2, 3]: significantly increased | cell clonability ([2]; low doses of early-acting cytokines, colonies in semi-solid medium (FIG. 1)): significant increase | total cell number ([2]; low doses of early-acting cytokines, compared to cytokines only (FIG. 2)): significant increase | number of CD34^+ cells ([2]; low doses of early-acting cytokines, flow cytometry (FIG. 2)): significant increase
